# According to PubChem BioAssay (NCI):
# Values joined by “and” are separate entries in the source; they are usually repeats but may differ in a detail not shown here. Identical values can stand only once.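 Each compound was tested at five concentrations against cells in 96-well plates for 48 hours. Abbreviation: GI50, concentration required for 50% inhibition of growth. TGI: concentration producing complete growth inhibition.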
# Test system: T-47D breast
# Experiment: DTP human tumour cell line panel, 48 h
SMILES,GI50 [µM],TGI
COc1ccc(Sc2[nH]c(C(C)=O)c3ccccc23)cc1,8.41,36 µM
COc1ccc(OC)c2c1[nH]c(=O)c1c3ccccc3cn21,1.3,4.07 µM
COc1cccc2c1C(=O)c1c(O)c3c(c(O)c1C2=O)C[C@@](O)(C(=O)CO)C[C@@H]3OC1CC(N)CC(C)O1 (stereo partly specified),0.067,1.13 µM and 0.696 µM
O=CCC1CCCCC1,–,> 100 µM
Nc1ccc([N+](=O)[O-])cc1N=C/C=C/c1ccccc1,15.7,77.7 µM
COC(=O)C1c2cc3c(cc2C(OC2OC(C)C(OC)C(C)(OC)C2OC)CC1(C)O)C(=O)c1c(O)cc2c(c1C3=O)OC1OC2(C)C(O)C([N+](C)(C)[O-])C1O (stereo unspecified),–,0.847 µM
CNCc1ccccc1-c1csc([C@@H](C)Nc2nc(C)nc3cc(OC)c(OC)cc23)c1,1.85,4.1 µM
CCOC(=O)C(C#N)C1=CC(=O)C(=O)c2ccc(OC)cc21 (stereo unspecified),–,34.5 µM
COc1cc(OCc2cccc(-c3ccc(C(O)c4nccs4)cc3)c2C)cc(OC)c1C=O (stereo unspecified),0.401,6.38 µM
O=C(O)COc1ccc2c(=O)c3sc4c(=O)c5ccccc5c(=O)c4c3c(=O)c2c1,21.4,50.9 µM
CC[As](CC)SC[C@H](C)C(=O)N1CCC[C@H]1C(=O)O,0.414,1.96 µM
NC(N)=N/N=C/c1c(-c2ccsc2)nc2sccn12,16.8,31.9 µM
CC(=O)OC1COC(Oc2c(C)c3c4c(c2O)[C@@H](C)CC[C@@H]4[C@@H](C)C[C@H]3C=C(C)C)C(O)C1OC(C)=O (stereo partly specified),20.1,56.4 µM
Cc1ccc(SC2c3ccc(C)cc3Oc3nc(N)c(C#N)c(N)c32)cc1 (stereo unspecified),1.8,5.01 µM

# Test system: CAKI-1 renal
# Experiment: DTP human tumour cell line panel, 48 h
SMILES,TGI,GI50
CCOC(=O)c1cnc2c(ccc3[nH]n(C)nc32)c1=O,> 100 µM,–
NC(=S)N/N=C(\CC1OC(=O)c2ccccc21)c1ccc(Cl)cc1 (stereo unspecified),99.2 µM,–
COc1ccc2occ(CCC(=O)O)c2c1,> 100 µM,–
COC(=O)C(C(=O)c1ccccc1)C(C(=O)C(=O)Nc1ccc(OC)cc1OC)C(=O)C(=O)c1ccc(C)cc1 (stereo unspecified),> 100 µM,–
CC1(C)COC(C2(C)C(=O)C=C(c3ccccc3)c3ccccc32)=N1 (stereo unspecified),> 100 µM,–
O=C(Nc1ccn(CCO)c(=O)n1)c1ccccc1,> 100 µM,–
O=C1CCC2(c3ccc(Cl)cc3)Nc3ncccc3N12 (stereo unspecified),> 100 µM,–
COc1ccc(Sc2[nH]c(C(C)=O)c3ccccc23)cc1,24 µM,2.86 µM
C#CCOc1cccc(-c2ncc3cc(NC(=O)CCl)ccc3n2)c1,3.31 µM,1.88 µM
CC12C/C(=C\c3ccccc3)C(=O)C3C1CCCC32,> 100 µM,–
OC(CC1SCCCS1)c1ccccc1 (stereo unspecified),> 100 µM,–
CCCCOC(=O)CNC(=O)OC/C=C/C#CC#C/C=C/COC(=O)NCC(=O)OCCCC,> 100 µM,> 100 µM
COc1ccc(OC)c2c1[nH]c(=O)c1c3ccccc3cn21,2.39 µM,1.09 µM
COc1cccc2c1C(=O)c1c(O)c3c(c(O)c1C2=O)C[C@@](O)(C(=O)CO)C[C@@H]3OC1CC(N)CC(C)O1 (stereo partly specified),0.119 µM and 0.377 µM,0.00936 µM and 0.00812 µM and 0.0263 µM
O=C1c2ccccc2C(=O)N1CCn1ccc(NC(c2ccccc2)(c2ccccc2)c2ccccc2)nc1=O,> 100 µM,–
CC(C)(C)NNC(=O)CCn1[nH]c(=O)c(Cl)c(Cl)c1=O,> 100 µM,–
O=CCC1CCCCC1,> 100 µM,–
CCC12CCCN(Cc3ccccc3)C1c1c(n(C)c3ccccc13)CC2 (stereo unspecified),> 253 µM,–
Cc1cc(Nc2ccc(NC(=O)c3ccc(Nc4ccnc5ccccc45)cc3)cc2)nc(N)n1,> 100 µM,> 100 µM

SMILES,TGI,GI50
CCN(CC)CCCN1CCc2c([nH]c3ccccc23)C1c1cccnc1 (stereo unspecified),> 100 µM,–
COC(=O)C1c2cc3c(cc2C(OC2OC(C)C(OC)C(C)(OC)C2OC)CC1(C)O)C(=O)c1c(O)cc2c(c1C3=O)OC1OC2(C)C(O)C([N+](C)(C)[O-])C1O (stereo unspecified),> 28.3 µM,–
CNCc1ccccc1-c1csc([C@@H](C)Nc2nc(C)nc3cc(OC)c(OC)cc23)c1,2.55 µM,1.28 µM
Nc1nc(Cl)cc(NCCCCCCCCNc2cc(Cl)nc(N)n2)n1,44.7 µM,–
CC(C)N(C(=O)C12C3C4C1C1C4(C#N)C3C12C#N)C(C)C (stereo unspecified),> 100 µM,–
O=C1CCC(Cl)=CC2CCCN12 (stereo unspecified),> 100 µM,–
c1ccc2cc(-c3cc4ccccc4s3)ccc2c1,> 100 µM,–
CCOC(=O)C(C#N)C1=CC(=O)C(=O)c2ccc(OC)cc21 (stereo unspecified),72.2 µM,–
COc1cc(OCc2cccc(-c3ccc(C(O)c4nccs4)cc3)c2C)cc(OC)c1C=O (stereo unspecified),3.3 µM,0.182 µM
Cc1ccc(S(=O)(=O)N(C=O)N=C2CCN(Cc3ccccc3)CC2)cc1,> 100 µM,–
CC(C)C(CCl)NC(=O)c1cccc(C(=O)N[C@H](CCl)C(C)C)n1 (stereo in doubt),> 100 µM,–
CC[As](CC)SC[C@H](C)C(=O)N1CCC[C@H]1C(=O)O,0.0648 µM,< 0.0181 µM
NC(N)=N/N=C/c1c(-c2ccsc2)nc2sccn12,21.9 µM,10.3 µM
Oc1ccc(Nc2ncnc3c2sc2ncccc23)cc1,9.21 µM,< 0.0185 µM
CC(=O)OC1COC(Oc2c(C)c3c4c(c2O)[C@@H](C)CC[C@@H]4[C@@H](C)C[C@H]3C=C(C)C)C(O)C1OC(C)=O (stereo partly specified),26.3 µM,12.6 µM
O=c1/c(=C/c2ccccc2[N+](=O)[O-])sc2nnc(-c3ccco3)n12,> 100 µM,–
CC(=O)CCn1ncc(Cl)c(Cl)c1=O,3.66 µM,–
CN1CC(=O)N2Cc3ccccc3-n3cccc3C2C1 (stereo unspecified),> 100 µM,–
Cc1cn2c(=O)c3ncn(C4OC(CO)C(O)C4O)c3n(C)c2n1 (stereo unspecified),> 100 µM,–

# Test system: HOP-62 NSCLC
# Experiment: DTP human tumour cell line panel, 48 h
SMILES,GI50,TGI
Clc1ccc2c(c1)[nH]c1c2nc2ccccn21,78 µM and 24.6 µM,> 100 µM and 55.6 µM
CCOC(=O)c1cnc2c(ccc3[nH]n(C)nc32)c1=O,–,> 100 µM
NC(=S)N/N=C(\CC1OC(=O)c2ccccc21)c1ccc(Cl)cc1 (stereo unspecified),–,46 µM
COc1ccc2occ(CCC(=O)O)c2c1,–,> 100 µM
COC(=O)C(C(=O)c1ccccc1)C(C(=O)C(=O)Nc1ccc(OC)cc1OC)C(=O)C(=O)c1ccc(C)cc1 (stereo unspecified),–,> 100 µM
CC1(C)COC(C2(C)C(=O)C=C(c3ccccc3)c3ccccc32)=N1 (stereo unspecified),–,> 100 µM
O=C(Nc1ccn(CCO)c(=O)n1)c1ccccc1,–,> 100 µM
O=C1CCC2(c3ccc(Cl)cc3)Nc3ncccc3N12 (stereo unspecified),–,> 100 µM
COc1ccc(Sc2[nH]c(C(C)=O)c3ccccc23)cc1,12.7 µM,25.3 µM
C#CCOc1cccc(-c2ncc3cc(NC(=O)CCl)ccc3n2)c1,2.02 µM,3.81 µM
CC12C/C(=C\c3ccccc3)C(=O)C3C1CCCC32,–,> 100 µM
OC(CC1SCCCS1)c1ccccc1 (stereo unspecified),–,> 100 µM
CCCCOC(=O)CNC(=O)OC/C=C/C#CC#C/C=C/COC(=O)NCC(=O)OCCCC,> 100 µM,> 100 µM
COc1ccc(OC)c2c1[nH]c(=O)c1c3ccccc3cn21,1.52 µM,3.18 µM
COc1cccc2c1C(=O)c1c(O)c3c(c(O)c1C2=O)C[C@@](O)(C(=O)CO)C[C@@H]3OC1CC(N)CC(C)O1 (stereo partly specified),0.0175 µM,0.326 µM and 0.0977 µM
O=C1c2ccccc2C(=O)N1CCn1ccc(NC(c2ccccc2)(c2ccccc2)c2ccccc2)nc1=O,–,33 µM
CC(C)(C)NNC(=O)CCn1[nH]c(=O)c(Cl)c(Cl)c1=O,–,> 100 µM
O=CCC1CCCCC1,–,> 100 µM
CCC12CCCN(Cc3ccccc3)C1c1c(n(C)c3ccccc13)CC2 (stereo unspecified),–,> 253 µM
Nc1ccc([N+](=O)[O-])cc1N=C/C=C/c1ccccc1,42.5 µM,> 100 µM
CCN(CC)CCCN1CCc2c([nH]c3ccccc23)C1c1cccnc1 (stereo unspecified),–,> 100 µM
COC(=O)C1c2cc3c(cc2C(OC2OC(C)C(OC)C(C)(OC)C2OC)CC1(C)O)C(=O)c1c(O)cc2c(c1C3=O)OC1OC2(C)C(O)C([N+](C)(C)[O-])C1O (stereo unspecified),–,> 100 µM
CNCc1ccccc1-c1csc([C@@H](C)Nc2nc(C)nc3cc(OC)c(OC)cc23)c1,1.43 µM,12.3 µM
